Test results reported in ChEMBL document CHEMBL5226287, “Small organic molecules targeting the energy metabolism of Mycobacterium tuberculosis” (Eur J Med Chem, 2021).
In brackets after ≈: the same amount, converted by molar mass. Starred links: 1 amine or outer side, 2 acyl side, 3 side chain; linkers in the order of their positions; H or OH if unused. Non-standard residues stand in square brackets, D forms with d. Residues, ends and D or L forms follow the SMILES beside them. ξ: configuration not given here. *: point of attachment. X1 = CCC(=O)C[C@@H](O)C[C@@H](C)C[C@H](N[*:1])C(=O)[*:2]; Alaψ(CH2NMeCH2CH2OH) = C[C@@H](CN(C)CCO)N*; Decanoyl(2R-Me) = CCCCCCCC[C@@H](C)C(=O)*; Ile(3ξ) = CCC(C)[C@H](N)C(=O)O; ξβ3hP = O=C(O)CC1CCCN1; Aib = CC(C)(N)C(=O)O

Key:
Assay type in all cases: functional
[1] = test system: Mycobacterium tuberculosis variant bovis; experiment: Antimycobacterial activity against Mycobacterium bovis BCG ATCC 35737 at 50 uM by Luminescence assay
[2] = test system: Mycobacterium tuberculosis variant bovis; experiment: Antibacterial activity against Mycobacterium bovis BCG assessed as inhibition of bacterial growth by microdilution based analysis
[3] = test system: Mycobacterium tuberculosis variant bovis; experiment: Antimycobacterial activity against Mycobacterium bovis BCG assessed as reduction in bacterial growth incubated for 48 hrs by HT-SPOTi assay
[4] = test system: Mycobacterium tuberculosis variant bovis; experiment: Antibacterial activity against Mycobacterium bovis BCG assessed as complete inhibition of bacterial growth by Alamar Blue/Resazurin

## Cc1ccc(C(=O)N2CCOCC2)cc1Nc1nccn1-c1cc(NC2CC2)ncn1
[1]
  MIC: 0.036 µM (≈ 0.0151 µg/mL)

## Cc1ccc2nc(C)c(C(=O)NCc3ccc(C(F)(F)F)cc3)n2c1
[2]
  MIC: 0.5 µM (≈ 0.174 µg/mL)

## CCCCCCCC[C@@H](C)C(=O)N1CCCC1CC(=O)N[C@@H](C[C@H](C)C[C@H](O)CC(=O)CC)C(=O)NC(C)(C)C(=O)NC(C)(C)C(=O)N[C@H](C(=O)N[C@H](C(=O)NC(C)(C)C(=O)NC(C)(C)C(=O)N[C@@H](C)CN(C)CCO)C(C)C)C(C)CC (stereo partly drawn) ({Decanoyl(2R-Me)}-[ξβ3hP][X1][Aib][Aib][Ile(3ξ)]V[Aib][Aib]-{Alaψ(CH2NMeCH2CH2OH)})
[3]
  MIC50: 33 µM (≈ 38.9 µg/mL)

## CCc1nc2ccc(Cl)cn2c1C(=O)NCc1ccc(N2CCC(c3ccc(OC(F)(F)F)cc3)CC2)cc1 [TELACEBEC]
[4]
  MIC90: 0.125 µg/mL (≈ 0.224 µM)
